Measurements from patent US20150157672A1, “KITS AND METHODS FOR SUSTAINED WEIGHT LOSS” (PHYTOLOGY LABS, INC., priority 2013, published 2015).
Read-outs that look alike come from different tables or passages of the source.

Legend:
[1] = Kinetic decay model of weight loss fitted to published clinical data (efficacy benchmarks); format: in vivo, human; conditions: for ΔWt. LossMAX: model parameter; for Decay Coeff. (−b): model Weight (t)=Weight Plateau+ΔWt. LossMAX e^-bt, across studies and doses
Source text: In order to better understand the underlying dynamics of weight loss agents over time, several weight loss agents were selected to study and attempt to model. These included a wide range of weight loss agents including dietary supplements (C. sinensis & alginate), OTC drugs (orlistat), and Rx drugs (sibutramine, Qysmia®). Over time, more may be added to the database to test hypotheses and to improve the modeling of the underlying weight loss dynamics.
All agents followed the same basic kinetic model: Weight (t)=Weight Plateau+ΔWt. LossMAX e-^bt, where Weight Plateau=Starting Weight−ΔWt. LossMAX. Where t=time, b=decay coefficient, and ΔWt. LossMAX=maximum amount of weight lost, which appears to be a function of weight loss agent, dosage, and patient population. […] It does appear to vary by weight loss agent. The variation within a weight loss agent appears to be fairly low. It is critical to note that these are only the initial observations based upon estimating the results using published data. The raw data, more observations, and a more sophisticated statistical analysis are needed in order to make more definitive claims. The fact that all weight loss agents seem to follow the same relationship supports the adaptation hypothesis. […] All of the observed data fit the model well. The decay coefficient was estimated to be 0.1±0.02, and all the studies except Rossner fell within one standard deviation of this mean. The decay coefficient for the Rossner study was 0.05, which is slightly more than two standard deviations from the mean. However, it is important to put this in context. The maximum difference between the model using 0.05 as the decay coefficient and 0.10 is about 2.0 kg, which falls within the observation error range. It is unclear whether this difference was due to random chance, to variation caused by the inherent error arising from estimating the data from the published graphs, or to something more fundamental. […] LossMAX for diabetic vs non-diabetic patients on orlistat. […] However, given the number of studies analyzed, it is premature to draw any definitive conclusions beyond that these are interesting data points from which a hypothesis can be generated. All of the observed data for Qysmia fit the model well, see FIG. 8. The decay coefficient was estimated to be 0.08±0.01. The decay coefficient was very consistent across all the studies and doses. Given these were registration studies, the larger sample sizes may have allowed for better resolution. The observed data for sibutramine also fit the model well. Since there were more studies, it was impractical to show them all in a graph. The decay coefficient was estimated to be 0.14±0.04. Sibutramine offered the widest number of conditions studied, and as expected, there was more variability in the decay coefficient.

α2-adrenergic receptor = conditions: functions as an antagonist; cited from earlier work
α1-receptor = conditions: functions as an antagonist; cited from earlier work
[2] = Estimated effect of first, second and third treatment phase (Tables 1-3); format: in vivo, human
Source text: In some embodiments the first treatment phase may comprise administering at least one weight loss agent. In some embodiments, the at least one weight loss agent is a protein kinase A modulator, a neurotransmitter modulator or a combination thereof. In some embodiments, the weight loss agents administered during this treatment phase are selected from Camellia sinensis, caffeine, Capsicum sp., 5-hydroxytryptophan, and any combination thereof. In yet other embodiments the first treatment phase comprises administering Camellia sinensis, caffeine, Capsicum sp., 5-hydroxytryptophan, or any combination thereof. […] In some embodiments, the second treatment phase comprises administering at least one weight loss agent. In some embodiments, the at least one weight loss agent is a macro nutrient absorption modulator, a neurotransmitter modulator or a combination thereof. In some embodiments, the at least one weight loss agent is selected from Phaseolus vulgaris, […] gabonensis, Rhodiola rosea, and any combination thereof. In yet other embodiments the second treatment phase comprises administering Phaseolus vulgaris, […] gabonensis, Rhodiola rosea, or any combination thereof. […] In some embodiments, the third treatment phase comprises administering at least one weight loss agent. In some embodiments, the at least one weight loss agent is a Protein Kinase A modulator, Adenosine Mono-Phosphate activated Kinase (AMPk) modulator, or a combination thereof. In some embodiments, the at least one weight loss agent is selected from Coffea canefora, Coleus forskholii, yohimbine, caffeine, and any combination thereof. In yet other embodiments, the third treatment phase comprises administering Coffea canefora, Coleus forskholii, yohimbine, caffeine, or any combination thereof.

[3] = Rough point estimate of effect size by weight loss agent from published studies (Table 7); format: in vivo, human
Experimental: A rough point estimate of the effect size by weight loss agent was developed using data from published studies.
The ΔWt. LossMAX for Garcinia sp. from 1.0 kg to 3.0 kg assumes the dose response curve model is valid, which has not been proven. The dosage of Phaseolus vulgaris is measured in α-amylase blocking units. Coffea canefora is administered as Syetol®, a commercial preparation most commonly used in the studies (400 mg). Crocus sativus dosages for depression are much lower 30 mg and have been shown for extracts of both stigma & leaf.

[4] = cited from earlier work; for thermogenic response: in man
[5] = when ingested; cited from earlier work
[6] = FIG. 2; cited from earlier work
[7] = Systematic review and meta-analysis of randomized clinical trials of Garcinia extract (HCA) with dose-response curve; format: in vivo, human; conditions: curve ΔWt=ΔWtmax(1−e^−b*dosage)
Source text: A systematic review and meta-analysis to examine the efficacy of Garcinia extract, hydroxycitric acid (HCA) as a weight reduction agent, using data from randomized clinical trials, found a small, statistically significant difference in weight loss of -0.9 kg between HCA and placebo. A nonlinear, significant (P<0.05) correlation between the dosage of HCA and body weight loss seems to exist. This relationship follows a curve ΔWt=Δ[…]) which is consistent with a first order ligand binding kinetics. […] However, HCA quickly approaches its asymptotic maximum by 2800 mg/day.

CC(C)CC(N(C)C)C1(c2ccc(Cl)cc2)CCC1 (centres unmarked) [Sibutramine, sibutramine]
ΔWt. LossMAX ([1]; Dosage 1 mg): 3.7 kg | ΔWt. LossMAX ([1]; Dosage 5 mg): 4.5 kg | ΔWt. LossMAX ([1]; Dosage 10 mg): 8.4 kg | ΔWt. LossMAX ([1]; Dosage 15 mg): 7.3 kg | ΔWt. LossMAX ([1]; Dosage 20 mg): 8.5 kg | ΔWt. LossMAX ([1]; Dosage 30 mg): 9.1 kg | Decay Coeff. (−b) [1]: 0.14 ± 0.04 | Decay Coeff. (−b) ([1]; listed as sibutramine): 0.14±0.04

COC(=O)[C@@H]1[C@H]2C[C@H]3c4[nH]c5ccccc5c4CCN3C[C@@H]2CC[C@@H]1O [yohimbine]
affinity for the α2-adrenergic receptor (α2-adrenergic receptor): high affinity | affinity for the α1-receptor (α1-receptor): moderate affinity | Estimated kg/wk reduction ([2]; third treatment phase): 0.1 kg/wk | Estimated ΔWt. LossMAX ([2]; third treatment phase): 1.5 kg | Kg./wk ([3]; Dosage 20 mg/day): 0-0.16 Kg./wk | ΔWt. LossMAX ([3]; Dosage 20 mg/day): 0 to 1.5 kg

N[C@@H](Cc1c[nH]c2ccc(O)cc12)C(=O)O [5-hydroxytryptophan]
reduction in energy intake ([4]; spontaneous reduction of calorie consumption): about 243 Kcal/day | Estimated kcal/day reduction ([2]; first treatment phase): 240 kcal/day | Estimated ΔWt. LossMAX ([2]; first treatment phase): 1.5 to 2.5 kg | Kcal/d ([3]; Dosage 50-900 mg oral): 400 kcal/day | Kg./wk ([3]; Dosage 50-900 mg oral): 0.2 Kg./wk | ΔWt. LossMAX ([3]; Dosage 50-900 mg oral): 1.5 to 2.5 kg | adverse effects [5]: nausea and diarrhea

Cn1c(=O)c2c(ncn2C)n(C)c1=O [caffeine]
raise of energy expenditure ([4]; 600 mg/day dose): 63 kcal/day | thermogenic response ([4]; dose 100 mg): 4-5% | thermogenic response ([4]; dose 200-250 mg): 10-12% | thermogenic response ([4]; dose 400-450 mg): 16% | minimum (or near minimum) dose with demonstrable stimulatory effect on resting metabolic rate (RMR) ([4]; in vivo): 100 mg | Estimated kcal/day reduction ([2]; first treatment phase): 60 kcal/day | Estimated ΔWt. LossMAX ([2]; first treatment phase): 0.5 kg | Estimated kg/wk reduction ([2]; third treatment phase): 0.05 kg/wk | Estimated ΔWt. LossMAX ([2]; third treatment phase): 0.5 kg | Kcal/d ([3]; Dosage 500-700 mg/day): 50 to 75 kcal/day

CC(C)(N)Cc1ccccc1 [Phentermine]
time to reduction or complete cessation of weight loss [6]: about 4 weeks

O=C(O)CC(O)(C(=O)O)C(O)C(=O)O (centres unmarked) [HCA, hydroxycitric acid]
ΔWtmax [7]: about 3.5 kg

CCCCCCCCCCC[C@@H](C[C@@H]1OC(=O)[C@H]1CCCCCC)OC(=O)[C@H](CC(C)C)NC=O [Orlistat, orlistat]
ΔWt. LossMAX ([1]; Dosage 120 mg (diabetics)): 4.3 kg | ΔWt. LossMAX ([1]; Dosage 120 mg): 7.1 kg | decay coefficient ([1]; Rossner study): 0.05 | Decay Coeff. (−b) [1]: 0.11 ± 0.02 | Decay Coeff. (−b) ([1]; listed as orlistat): 0.1±0.02
